{
  "source": "paper PMC11396746",
  "about": "“Stability Evaluation and Pharmacokinetic Profiling of Vepdegestrant in Rodents Using Liquid Chromatography–Tandem Mass Spectrometry” (Molecules, 2024)",
  "key": {"[1]": {"experiment": "Stability of vepdegestrant in mouse plasma under storage conditions (method validation)", "format": "in vitro ADME", "procedure": "(§1) The results were within ±15% RE under all storage conditions, including at room temperature for 6 h, after three freeze–thaw cycles, at −20 °C for 4 weeks, and in an autosampler for 24 h after sample preparation.\n(§2) Stability was tested for vepdegestrant in biological samples at LQC and HQC under specific conditions: Short-term stability at room temperature for 6 h, three freeze–thaw cycles, long-term stability at −20 °C for 4 weeks, and pretreated samples in an autosampler for 24 h. The stability test was performed via five replicates analysis, with the acceptance criteria being an RE within ±15% at LQC and HQC levels."}, "[2]": {"experiment": "Plasma stability at 4, 25 and 37 °C", "format": "in vitro ADME", "conditions": "mouse and rat plasma at 4, 25 and 37 °C, 4 h incubation, 0.1 µg/mL", "procedure": "Plasma stability of vepdegestrant was investigated in mouse and rat plasma. Vepdegestrant (10 µL) was added to blank mouse or rat plasma (490 µL) to prepare a final concentration of 0.1 µg/mL. The mixtures were incubated at 4, 25, and 37 °C. After 0, 1, and 4 h of incubation, aliquots (50 µL) were added to microtubes containing ice-cold ACN solution with an IS (200 µL) to terminate the reaction. The mixture was vortexed thoroughly for 10 min and centrifuged at 17,054 g under 25 °C for 10 min. Subsequently, the supernatant (100 µL) was taken, and 5 µL was injected for HPLC-MS/MS analysis."}, "[3]": {"experiment": "Adsorption investigation after pH stability test (microtube emptied, ACN added, vepdegestrant recovered)", "format": "physicochemical", "procedure": "The half-lives of vepdegestrant at pH values of 2, 4, 6, 7.4, 8, and 10 were 7.35, 0.77, 0.40, 0.50, 0.38, and 0.60 h, respectively. Sun et al. reported that the thalidomide ligand, a cereblon-targeting moiety of PROTAC, was rapidly degraded in phosphate-buffered saline (PBS; pH 7.4). The binder in vepdegestrant contained lenalidomide, a CRBN ligand with a chemical structure similar to that of thalidomide. In addition, Chen et al. reported that the glutarimide ring of lenalidomide is cleaved and degraded through non-enzymatic hydrolysis in aqueous solutions and hepatocytes at physiological pH [24]. However, this instability might be attributed to the adsorption of vepdegestrant onto the surfaces of experimental containers such as microtubes. A high proportion of organic solvent can prevent vepdegestrant from binding to the sample vial surface, and the possibility of adsorption exists because a buffer solution was used in this study. To investigate adsorption, after the pH stability test was completed, the incubation mixture was completely emptied, and ACN was added and thoroughly mixed. LC-MS/MS analysis includes MRM transitions for the expected hydrolysis product i.e., m/z 742.3 → 356.3, to detect the presence of degradation products. […] In contrast, hydrolysis may play a significant role at pH 10. Based on these findings, future studies should consider the selection of container materials and the use of organic solvents to minimize vepdegestrant adsorption."}, "[4]": {"experiment": "Stability of vepdegestrant in rat plasma under storage conditions (method validation)", "format": "in vitro ADME", "procedure": "as §1, §2"}, "[5]": {"experiment": "Stability in PBS only (control of microsomal stability test, no NADPH and no microsomes)", "format": "physicochemical", "conditions": "PBS (pH 7.4), 1 h incubation", "procedure": "The metabolic stability of vepdegestrant was evaluated using liver microsomes obtained from mice, rats, dogs, and humans. Vepdegestrant was dissolved in DMSO to prepare a stock solution with a concentration of 0.1 mM. Microsomes (25 µL) were spiked into PBS (440 µL) and pre-incubated for 5 min. After pre-incubation, vepdegestrant stock solution (5 µL) was added, followed by an NADPH regenerating system (27 µL) to initiate the reaction. The composition of the reaction mixture was as follows: Vepdegestrant (final concentration 1 µM), mouse, rat, dog, human liver microsomes (protein concentration: 1 mg/mL), NADPH regenerating system (final concentrations: 1.3 mM NADP^+, 3.3 mM glucose-6-phosphate, 0.4 U/mL glucose-6-phosphate dehydrogenase, and 3.3 mM magnesium chloride), and PBS (pH 7.4). At 5, 15, 30, and 60 min after starting the reaction, aliquots (50 µL) were taken and added to ice-cold ACN with an IS (200 µL) to terminate the reaction. For the zero-time samples, aliquots were taken before adding NADPH. Subsequently, the mixture was vigorously mixed for 10 min and centrifuged at 17,054 g under 25 °C for 10 min. For analysis, 5 µL of the supernatant was injected into the HPLC-MS/MS system. In addition, the stability of vepdegestrant in rat liver microsomes was assessed in the absence of NADPH or NADPH and microsomes (PBS only). […]"}, "[6]": {"experiment": "pH stability in buffer solutions (pH 2-10) and PBS pH 7.4", "format": "physicochemical", "conditions": "for vepdegestrant remaining: 2 h, 0.1 µg/mL", "procedure": "The physicochemical stability of vepdegestrant was determined using various pH buffers (pH 2.0–10.0) and plasma and microsomes.\nA solution of vepdegestrant in methanol (10 µL) was added to buffer solutions at pH 2, 4, 6, 8, and 10 or pH 7.4 PBS (490 µL), yielding a final concentration of 0.1 µg/mL, and incubated at 37 °C, with 100 rpm in a water bath. At 0, 0.5, 1, and 2 h post-incubation, the incubation mixture (50 µL) was transferred to microtubes containing ice-cold ACN solution (200 µL) with IS to terminate the reaction. The mixture was vortexed thoroughly for 10 min. Subsequently, the supernatant (100 µL) was taken, and 5 µL was injected for HPLC-MS/MS analysis."}, "[7]": {"conditions": "1 month at −20 °C, nominal 3 ng/mL"}, "[8]": {"conditions": "1 month at −20 °C, nominal 900 ng/mL"}, "[9]": {"conditions": "6 h at room temperature (25 °C), nominal 3 ng/mL"}, "[10]": {"conditions": "6 h at room temperature (25 °C), nominal 900 ng/mL"}, "[11]": {"conditions": "Freeze–thaw three-cycle (−20 °C → RT), nominal 3 ng/mL"}, "[12]": {"conditions": "Freeze–thaw three-cycle (−20 °C → RT), nominal 900 ng/mL"}, "[13]": {"conditions": "Processed sample in 10 °C autosampler for 24 h, nominal 3 ng/mL"}, "[14]": {"conditions": "Processed sample in 10 °C autosampler for 24 h, nominal 900 ng/mL"}},
  "data": [
    {"molecule": "O=C1CC[C@H](N2Cc3cc(N4CCN(CC5CCN(c6ccc([C@@H]7c8ccc(O)cc8CC[C@@H]7c7ccccc7)cc6)CC5)CC4)ccc3C2=O)C(=O)N1", "note": "[vepdegestrant, Vepdegestrant]", "values": [
      {"measurement": "Stability in Mouse Plasma", "setting": "[1]; [7]", "result": "103.1 ± 5.4", "unit": "%"},
      {"measurement": "Stability in Mouse Plasma", "setting": "[1]; [8]", "result": "107.7 ± 4.0", "unit": "%"},
      {"measurement": "Stability in Mouse Plasma", "setting": "[1]; [9]", "result": "97.70 ± 4.12", "unit": "%"},
      {"measurement": "Stability in Mouse Plasma", "setting": "[1]; [10]", "result": "110.7 ± 2.8", "unit": "%"},
      {"measurement": "Stability in Mouse Plasma", "setting": "[1]; [11]", "result": "99.78 ± 1.60", "unit": "%"},
      {"measurement": "Stability in Mouse Plasma", "setting": "[1]; [12]", "result": "103.3 ± 4.1", "unit": "%"},
      {"measurement": "Stability in Mouse Plasma", "setting": "[1]; [13]", "result": "104.0 ± 7.2", "unit": "%"},
      {"measurement": "Stability in Mouse Plasma", "setting": "[1]; [14]", "result": "98.49 ± 8.79", "unit": "%"},
      {"measurement": "vepdegestrant remaining in plasma", "setting": "[2]", "result": "86.3–113.5%"},
      {"measurement": "recovered vepdegestrant percentage (adsorbed to microtube, recovered with ACN)", "setting": "[3]; pH 2, after pH stability test", "result": 21.8, "unit": "%"},
      {"measurement": "recovered vepdegestrant percentage (adsorbed to microtube, recovered with ACN)", "setting": "[3]; pH 4, after pH stability test", "result": 108.9, "unit": "%"},
      {"measurement": "recovered vepdegestrant percentage (adsorbed to microtube, recovered with ACN)", "setting": "[3]; pH 6, after pH stability test", "result": 105.1, "unit": "%"},
      {"measurement": "recovered vepdegestrant percentage (adsorbed to microtube, recovered with ACN)", "setting": "[3]; pH 7.4, after pH stability test", "result": 72.6, "unit": "%"},
      {"measurement": "recovered vepdegestrant percentage (adsorbed to microtube, recovered with ACN)", "setting": "[3]; pH 8, after pH stability test", "result": 63.9, "unit": "%"},
      {"measurement": "recovered vepdegestrant percentage (adsorbed to microtube, recovered with ACN)", "setting": "[3]; pH 10, after pH stability test", "result": 27.7, "unit": "%"},
      {"measurement": "Stability in Rat Plasma", "setting": "[4]; [7]", "result": "98.83 ± 12.58", "unit": "%"},
      {"measurement": "Stability in Rat Plasma", "setting": "[4]; [8]", "result": "104.3 ± 8.5", "unit": "%"},
      {"measurement": "Stability in Rat Plasma", "setting": "[4]; [9]", "result": "100.3 ± 7.1", "unit": "%"},
      {"measurement": "Stability in Rat Plasma", "setting": "[4]; [10]", "result": "99.59 ± 4.12", "unit": "%"},
      {"measurement": "Stability in Rat Plasma", "setting": "[4]; [11]", "result": "98.70 ± 7.09", "unit": "%"},
      {"measurement": "Stability in Rat Plasma", "setting": "[4]; [12]", "result": "94.98 ± 1.40", "unit": "%"},
      {"measurement": "Stability in Rat Plasma", "setting": "[4]; [13]", "result": "99.86 ± 0.84", "unit": "%"},
      {"measurement": "Stability in Rat Plasma", "setting": "[4]; [14]", "result": "92.18 ± 6.32", "unit": "%"},
      {"measurement": "vepdegestrant remaining", "setting": "[5]", "result": 10.2, "unit": "%"},
      {"measurement": "half-life at 0.1 µg/mL", "setting": "[6]; PBS pH 7.4, pH 7.4 (PBS), 37 °C", "result": 30, "unit": "min"},
      {"measurement": "half-life at 0.1 µg/mL", "setting": "[6]; pH 2 buffer solution, pH 2, 37 °C", "result": 441, "unit": "min"},
      {"measurement": "vepdegestrant remaining", "setting": "[6]; pH 2 buffer, 37 °C", "result": 82.6, "unit": "%"},
      {"measurement": "half-life at 0.1 µg/mL", "setting": "[6]; pH 4 buffer solution, pH 4, 37 °C", "result": 46.2, "unit": "min"},
      {"measurement": "vepdegestrant remaining", "setting": "[6]; pH 4–10 buffers, 37 °C", "result": "2.25–12.8%"},
      {"measurement": "half-life at 0.1 µg/mL", "setting": "[6]; pH 6 buffer solution, pH 6, 37 °C", "result": 24, "unit": "min"},
      {"measurement": "half-life at 0.1 µg/mL", "setting": "[6]; pH 8 buffer solution, pH 8, 37 °C", "result": 22.8, "unit": "min"},
      {"measurement": "half-life at 0.1 µg/mL", "setting": "[6]; pH 10 buffer solution, pH 10, 37 °C", "result": 36, "unit": "min"}
    ]}
  ]
}
